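1) Cells in 96-well plates. 2) Compound, 48 h, 5 concentrations. 3) Linear interpolation between surrounding doses. 4) Unreached endpoint = highest concentration. GI50: concentration for 50% inhibition of growth.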 The source made the active and inactive calls. Cut-off read from the data, not from the text of the source: active = GI50 up to about 1.1 µM and inactive = higher.
How the values were obtained:
Assay in all cases: NCI tumour cell line growth inhibition, 48 h
A549 = test system: A549
ACHN = test system: ACHN
EKVX = test system: EKVX
HCT-15 = test system: HCT-15
HL-60 = test system: HL-60
HOP-92 = test system: HOP-92
HT-29 = test system: HT-29
LOX IMVI = test system: LOX IMVI
M14 = test system: M14
MOLT-4 = test system: MOLT-4
Malme-3M = test system: Malme-3M
NCI-H23 = test system: NCI-H23
NCI-H460 = test system: NCI-H460
OVCAR-8 = test system: OVCAR-8
SF-295 = test system: SF-295
SF-539 = test system: SF-539
SW-620 = test system: SW-620
UACC-257 = test system: UACC-257
HOP-62 = test system: HOP-62
SK-OV-3 = test system: SK-OV-3

SMILES	GI50 (A549)	GI50 (ACHN)	GI50 (EKVX)	GI50 (HCT-15) [µM]	GI50 (HL-60)	GI50 (HOP-92)	GI50 (HT-29)	GI50 (LOX IMVI)	GI50 (M14)	GI50 (MOLT-4)	GI50 (Malme-3M)	GI50 (NCI-H23)	GI50 (NCI-H460)	GI50 (OVCAR-8)	GI50 (SF-295)	GI50 (SF-539)	GI50 (SW-620)	GI50 (UACC-257)	GI50 (HOP-62)	GI50 (SK-OV-3)
COc1ccc(-c2cc3[nH]nc(N)c3c(=O)o2)cc1	> 100 µM (inactive)	> 100 µM (inactive)	14 µM (inactive)	> 100	90.4 µM (inactive)	> 100 µM (inactive)	> 100 µM (inactive)	> 100 µM (inactive)	> 100 µM (inactive)	> 100 µM (inactive)	> 100 µM (inactive)	> 100 µM (inactive)	> 100 µM (inactive)	> 100 µM (inactive)	> 100 µM (inactive)	> 100 µM (inactive)	> 100 µM (inactive)	> 100 µM (inactive)	–	–
O=C1C=C(C2OC(CO)C(O)C2O)C(=O)N1 (stereo unspecified)	> 100 µM (inactive)	–	> 100 µM (inactive)	> 74.5	45.9 µM (inactive)	> 100 µM (inactive)	> 100 µM (inactive)	> 100 µM (inactive)	–	45.6 µM (inactive)	> 100 µM (inactive)	> 100 µM (inactive)	> 100 µM (inactive)	> 100 µM (inactive)	> 100 µM (inactive)	> 100 µM (inactive)	26 µM (inactive)	> 100 µM (inactive)	> 100 µM (inactive)	> 100 µM (inactive)
C/C(=N\Oc1cc(Cl)ncn1)c1ccccn1	86.7 µM (inactive)	90.6 µM (inactive)	38.5 µM (inactive)	–	–	20.5 µM (inactive)	95.7 µM (inactive)	42.3 µM (inactive)	18.4 µM (inactive)	39.2 µM (inactive)	61.9 µM (inactive)	34.1 µM (inactive)	25.3 µM (inactive)	> 100 µM (inactive)	63 µM (inactive)	29.6 µM (inactive)	84.7 µM (inactive)	99.8 µM (inactive)	38.1 µM (inactive)	92.5 µM (inactive)
COC1OC2=CCC3C(=O)NC(=O)C3C2[C@H](OCc2ccccc2)C1OCc1ccccc1 (stereo partly specified)	18.9 µM (inactive)	19.9 µM (inactive)	1.85 µM (inactive)	1.93	1.79 µM (inactive)	1.63 µM (inactive)	1.82 µM (inactive)	1.73 µM (inactive)	1.81 µM (inactive)	1.5 µM (inactive)	1.77 µM (inactive)	2.22 µM (inactive)	17.9 µM (inactive)	1.6 µM (inactive)	18.1 µM (inactive)	17.3 µM (inactive)	1.49 µM (inactive)	2.09 µM (inactive)	17.9 µM (inactive)	17.1 µM (inactive)
CC(=O)OCc1nnn2c1CCC2	> 100 µM (inactive)	> 100 µM (inactive)	> 100 µM (inactive)	> 100	> 100 µM (inactive)	> 100 µM (inactive)	> 100 µM (inactive)	> 100 µM (inactive)	> 100 µM (inactive)	> 100 µM (inactive)	> 100 µM (inactive)	> 10 µM (inactive)	> 100 µM (inactive)	> 100 µM (inactive)	> 100 µM (inactive)	> 100 µM (inactive)	> 100 µM (inactive)	> 100 µM (inactive)	> 100 µM (inactive)	> 100 µM (inactive)
COc1ccc(CN2C(=O)C(=O)N(C)C2=O)c2ccccc12	> 10 µM (inactive)	> 10 µM (inactive)	> 10 µM (inactive)	> 10	> 10 µM (inactive)	–	> 10 µM (inactive)	> 10 µM (inactive)	> 10 µM (inactive)	> 10 µM (inactive)	> 10 µM (inactive)	> 10 µM (inactive)	> 10 µM (inactive)	> 10 µM (inactive)	> 10 µM (inactive)	> 10 µM (inactive)	> 10 µM (inactive)	–	> 10 µM (inactive)	> 10 µM (inactive)
CCOC(=O)c1csc(NC(=O)CCN2CCCC2)n1	> 100 µM (inactive)	> 100 µM (inactive)	> 100 µM (inactive)	> 100	> 100 µM (inactive)	> 100 µM (inactive)	> 100 µM (inactive)	> 100 µM (inactive)	> 100 µM (inactive)	> 100 µM (inactive)	–	> 100 µM (inactive)	> 100 µM (inactive)	> 100 µM (inactive)	> 100 µM (inactive)	> 100 µM (inactive)	> 100 µM (inactive)	> 100 µM (inactive)	> 100 µM (inactive)	> 100 µM (inactive)

— ChEMBL document CHEMBL1201862, “PubChem BioAssay data set” (2004)
